Measurements taken from patent US9994533B2, “Method of preparing ATG's analogue, and the application of ATG and it's analogue” (Longhua Hospital Shanghai University of Traditional Chinese …, priority 2016, dated 2018).

Key:
NOX4 [1] = test: NOX4 protein expression in glomeruli of STZ-eNOS−/− mice (Western Blot); assay type: in vivo; conditions: for NOX4/GAPDH mean: glomeruli, Western Blot
Text: The detection method of Western Blot and mRNA used in the present embodiment is a detection method commonly used by person skilled in the art, and the specific detection method is described in “Molecular Biology Laboratory Manual” (People's Military Medical Press, published in 2011 Jun. 1). 2. ATG can decrease NOX4's protein and mRNA expression in glomeruli of STZ-eNOS^−/− mice.

[2] = biological target: T1, Keratin, type II cytoskeletal 6A (Homo sapiens, UniProt P02538); test: DARTS mass spectrometry of 293T lysate after ATG; assay type: binding; conditions: ATG 300 μM, pronase 1:1000, K2C6A_HUMAN
T1 construct: endogenous in cells; host or cells: 293T
T1 sequence (P02538 2-564 limits assumed): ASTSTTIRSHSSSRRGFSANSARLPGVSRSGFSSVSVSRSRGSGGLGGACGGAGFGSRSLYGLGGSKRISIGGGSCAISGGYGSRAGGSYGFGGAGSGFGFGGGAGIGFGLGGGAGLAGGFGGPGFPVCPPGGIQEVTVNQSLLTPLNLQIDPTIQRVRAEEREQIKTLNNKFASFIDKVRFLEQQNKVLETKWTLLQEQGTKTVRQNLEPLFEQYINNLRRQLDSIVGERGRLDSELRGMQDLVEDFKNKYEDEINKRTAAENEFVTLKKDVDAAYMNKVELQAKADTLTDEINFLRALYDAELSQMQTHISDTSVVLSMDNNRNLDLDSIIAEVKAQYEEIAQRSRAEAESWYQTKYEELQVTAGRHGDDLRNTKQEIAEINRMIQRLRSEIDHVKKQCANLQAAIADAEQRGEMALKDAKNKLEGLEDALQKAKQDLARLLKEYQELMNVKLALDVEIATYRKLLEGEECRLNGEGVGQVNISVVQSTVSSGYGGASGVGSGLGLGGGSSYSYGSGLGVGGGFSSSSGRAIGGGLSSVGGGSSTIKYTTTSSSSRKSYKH
Description: (§1) 293T cells were digested with M-PER mammalian protein extraction buffer (78501 ThermoFisher) and phosphatase inhibitor (50 mM NaF, 10 mM β-glycerophosphate, 5 mM sodium pyrophosphate, 2 mM Na3VO4); and the protein concentration is determined by Bradford method (500-0006 Bio-rad). ATG was either added or not in the cell lysate. If added, the concentration of ATG was 300 μM. The cells were incubated at room temperature for 1 h. The cells were then lysed by incubating for 20 minutes at room temperature with different concentrations of pronase at 1:1000 (10165921001, Roche). The two groups of lysates are subjected to mass spectrometry and then compared.

NOX4 [3] = test: NOX4 protein expression in human immortal podocytes under high glucose (Western blot); assay type: cell-based; conditions: ATG 10 μmol/L
Text: The detection method of Western Blot and mRNA used in the present embodiment is a detection method commonly used by person skilled in the art, and the specific detection method is described in “Molecular Biology Laboratory Manual” (People's Military Medical Press, published in 2011 Jun. 1). 3.1 Western blot and Realtime PCR confirmed that ATG in human immortal podocytes can inhibit the overexpression of NOX4 caused by high glucose stimuli, see table 5 and FIG. 6. The expression of NOX4 in the total protein, membrane protein and mitochondrial protein of human immortal podocytes was detected in the experiment. […] The meanings of the symbols in FIG. 6 are as follows: HG: high glucose (glucose […]); T: total protein; Tmeb cell membrane protein; Mito: mitochondrial protein.

NOX4 mRNA [4] = test: NOX4 mRNA expression in mouse primary endothelial cells under high glucose (Realtime PCR); assay type: cell-based; conditions: FIG. 9
Text: The detection method of Western Blot and mRNA used in the present embodiment is a detection method commonly used by person skilled in the art, and the specific detection method is described in “Molecular Biology Laboratory Manual” (People's Military Medical Press, published in 2011 Jun. 1). 3.2 Western blot and Realtime PCR confirmed that ATG could inhibit the overexpression of NOX4 in mouse's primary endothelial cells. The dose of 1 and 10 μmol/L corresponds to the last two bands.

NOX4 gene = test: NOX4 mRNA expression in glomeruli of STZ-eNOS−/− mice (RT-PCR); assay type: in vivo; conditions: FIG. 5
Text: The detection method of Western Blot and mRNA used in the present embodiment is a detection method commonly used by person skilled in the art, and the specific detection method is described in “Molecular Biology Laboratory Manual” (People's Military Medical Press, published in 2011 Jun. 1). Further, the mRNA of the glomeruli was extracted and subjected to RT-PCR.

PP2A = PP2A activity in immortal podocytes (PP2A activity kit); assay type: cell-based; conditions: 1 hour
Description: Immortal podocytes were stimulated with ATG at concentrations of 0, 1.0 μm, 3.3 μm, and 10 μm, and the stimulation time was 1 hour. The activity of PP2A was detected by PP2A activity kit (R & D systems, DYC3309-2).

[5] = biological target: T2, Serine/threonine-protein phosphatase 2A catalytic subunit beta isoform (Homo sapiens, UniProt P62714); test: DARTS mass spectrometry of 293T lysate after ATG; assay type: binding
T2 construct: endogenous in cells; host or cells: 293T
Description: as §1
(§2) Furthermore, since the content of PP2A in cells is very low in the normal state, it is considered that the binding ratio of ATG and PP2A is high.

Tubulin beta-6 chain = biological target: T3, Tubulin beta-6 chain (Homo sapiens, UniProt Q9BUF5); test: DARTS mass spectrometry of 293T lysate after ATG; assay type: binding; conditions: ATG 300 μM, pronase 1:1000, TBB6_HUMAN
T3 construct: endogenous in cells; host or cells: 293T
Description: as §1, §2

Tubulin beta-3 chain = biological target: T4, Tubulin beta-3 chain (Homo sapiens, UniProt Q13509); test: DARTS mass spectrometry of 293T lysate after ATG; assay type: binding; conditions: ATG 300 μM, pronase 1:1000, TBB3_HUMAN
T4 construct: endogenous in cells; host or cells: 293T
Description: as §1, §2

NOX4 mRNA [6] = test: NOX4 mRNA expression in human immortal podocytes under high glucose (Realtime PCR); assay type: cell-based; conditions: FIG. 7
Text: The detection method of Western Blot and mRNA used in the present embodiment is a detection method commonly used by person skilled in the art, and the specific detection method is described in “Molecular Biology Laboratory Manual” (People's Military Medical Press, published in 2011 Jun. 1). 3.1 Western blot and Realtime PCR confirmed that ATG in human immortal podocytes can inhibit the overexpression of NOX4 caused by high glucose stimuli, see table 5 and FIG. 6. The expression of NOX4 in the total protein, membrane protein and mitochondrial protein of human immortal podocytes was detected in the experiment.

[7] = ATG 300 μM, pronase 1:1000, PP2AB_HUMAN

T2 sequence (P62714 whole entry, canonical isoform): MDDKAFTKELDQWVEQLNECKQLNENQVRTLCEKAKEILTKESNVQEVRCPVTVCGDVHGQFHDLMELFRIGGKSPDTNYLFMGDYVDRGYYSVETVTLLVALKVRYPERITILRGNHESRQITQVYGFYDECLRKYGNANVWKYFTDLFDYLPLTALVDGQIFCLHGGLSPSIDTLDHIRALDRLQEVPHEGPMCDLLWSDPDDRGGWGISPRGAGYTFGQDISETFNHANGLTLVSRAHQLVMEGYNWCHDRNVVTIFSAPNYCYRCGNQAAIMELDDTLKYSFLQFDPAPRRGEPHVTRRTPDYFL
T3 sequence (Q9BUF5 whole entry): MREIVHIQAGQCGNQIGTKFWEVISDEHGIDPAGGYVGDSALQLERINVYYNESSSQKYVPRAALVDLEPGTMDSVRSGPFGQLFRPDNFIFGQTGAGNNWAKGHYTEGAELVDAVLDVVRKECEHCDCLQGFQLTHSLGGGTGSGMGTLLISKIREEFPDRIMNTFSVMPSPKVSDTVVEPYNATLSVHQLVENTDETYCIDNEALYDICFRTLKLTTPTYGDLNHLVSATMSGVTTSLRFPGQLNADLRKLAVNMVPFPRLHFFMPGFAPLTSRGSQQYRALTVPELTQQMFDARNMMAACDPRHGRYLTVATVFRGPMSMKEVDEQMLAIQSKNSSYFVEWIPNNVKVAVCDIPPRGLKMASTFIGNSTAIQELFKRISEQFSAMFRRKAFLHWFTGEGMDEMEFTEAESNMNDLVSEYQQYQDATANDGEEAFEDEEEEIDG
T3 sequence (P68363 whole entry partner): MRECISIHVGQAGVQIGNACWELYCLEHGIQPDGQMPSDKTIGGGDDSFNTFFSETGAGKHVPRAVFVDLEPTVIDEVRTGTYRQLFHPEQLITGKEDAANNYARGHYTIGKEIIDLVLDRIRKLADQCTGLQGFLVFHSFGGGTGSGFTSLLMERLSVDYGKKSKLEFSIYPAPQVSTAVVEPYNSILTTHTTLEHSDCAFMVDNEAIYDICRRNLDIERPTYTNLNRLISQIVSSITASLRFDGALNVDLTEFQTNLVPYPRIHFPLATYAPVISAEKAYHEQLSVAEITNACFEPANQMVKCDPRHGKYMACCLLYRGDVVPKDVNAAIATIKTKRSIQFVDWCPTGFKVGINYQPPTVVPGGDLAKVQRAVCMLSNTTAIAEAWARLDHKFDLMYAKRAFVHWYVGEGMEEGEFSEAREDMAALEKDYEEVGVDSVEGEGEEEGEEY
T4 sequence (Q13509 whole entry): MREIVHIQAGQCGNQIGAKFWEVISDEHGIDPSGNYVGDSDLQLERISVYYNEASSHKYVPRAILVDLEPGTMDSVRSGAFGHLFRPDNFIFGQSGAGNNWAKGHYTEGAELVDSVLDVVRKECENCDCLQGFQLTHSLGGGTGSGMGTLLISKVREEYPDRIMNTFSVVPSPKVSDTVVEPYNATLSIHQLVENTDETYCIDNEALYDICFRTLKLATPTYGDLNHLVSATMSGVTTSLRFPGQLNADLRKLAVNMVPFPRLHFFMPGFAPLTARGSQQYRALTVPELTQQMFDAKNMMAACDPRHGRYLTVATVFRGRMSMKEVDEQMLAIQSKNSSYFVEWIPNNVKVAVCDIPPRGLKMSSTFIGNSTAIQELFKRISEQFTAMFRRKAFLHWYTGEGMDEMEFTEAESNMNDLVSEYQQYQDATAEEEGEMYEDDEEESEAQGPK
T4 sequence (P68363 whole entry partner): as the sequence (P68363 whole entry partner) above

**Q.** What does the source list for `COc1cc(C[C@H]2C(=O)OC[C@@H]2Cc2ccc(OC)c(OC)c2)ccc1O` [ATG, Arctigenin]?
**A.** NOX4/GAPDH mean (NOX4 [1]; Normal group-ATG): 0.13; NOX4/GAPDH mean (NOX4 [1]; STZ-ATG): 0.14; NOX4's protein expression in glomerular, versus untreated group (NOX4 [1]; STZ-eNOS mice administered with ATG): significantly less than that of the untreated group; Ratio (ATG/DMSO) [2]: 5.2; Spectral Count (ATG) [2]: 8; T-NOX4/β-actin mean (NOX4 [3]; High glucose-ATG, total protein, podocytes): 1.13; expression of NOX4 in total protein, membrane protein and mitochondrial protein (NOX4 [3]; high glucose, FIG. 6): can inhibit the expression of NOX4 in the above three kinds of structures; overexpression of NOX4 mRNA induced by high glucose (NOX4 mRNA [4]): inhibited the overexpression of NOX4 mRNA; mRNA expression of NOX4 gene in glomeruli (NOX4 gene): significantly reduced; activity of PP2A, dependence on concentration (PP2A; ATG 0 to 10 μm): increased with the increase of ATG concentration; PP2A activity values, mean (PP2A; ATG 1.0 μm): 0.0268; PP2A activity values, mean (PP2A; ATG 3.3 μm): 0.0279; PP2A activity values, mean (PP2A; ATG 10 μm): 0.0484; Ratio (ATG/DMSO) [5, 7]: 7.8; Spectral Count (ATG) [5, 7]: 14; binding ratio of ATG and PP2A ([5]; conclusion from mass spectrometry): high; Ratio (ATG/DMSO) (Tubulin beta-6 chain): 13.6; Spectral Count (ATG) (Tubulin beta-6 chain): 25; Ratio (ATG/DMSO) (Tubulin beta-3 chain): 25.6; Spectral Count (ATG) (Tubulin beta-3 chain): 49; overexpression of NOX4 mRNA induced by high glucose (NOX4 mRNA [6]): able to inhibit the overexpression of NOX4 mRNA
